Experiments:
[1] = test system: Cabbage Looper (Trichoplusia ni, TRIPNI); assay: Bioassays on Cabbage Looper (CL), 128-well diet tray assay; assay type: in vivo; settings: Trichoplusia ni; Cabbage Looper; rating class; read-out: CL
Procedure, shortened: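 Test molecule was dissolved in 90:10 acetone-water, applied to artificial diet at 50 μg/cm^2 and allowed to dry. Second-instar larvae were then added, one to five per well, and trays held at 25° C for five to seven days before mortality was scored and averaged.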

[2] = test system: Beet Armyworm (Spodoptera exigua, LAPHEG); assay: Bioassays on Beet Armyworm (BAW), 128-well diet tray assay; assay type: in vivo; settings: Spodoptera exigua; Beet Armyworm; rating class; read-out: BAW
Procedure, shortened: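 Test molecule was dissolved in 90:10 acetone-water and applied at 50 μg/cm^2 onto artificial diet in eight wells, then dried. Second instar larvae, one to five per well, were added, and trays were kept vented at 25° C. with a 14:10 photoperiod for five to seven days before mortality was recorded.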

Structure (SMILES)	pest or weed control at 50 µg/cm2 [1]	pest or weed control at 50 µg/cm2 [2]
Cc1cc(NC(=O)[C@H]2[C@H](c3cc(Cl)c(Cl)c(Cl)c3)C2(Cl)Cl)cc(C(=O)Nc2cc(N)c(F)cc2F)c1Cl [F1477, N-(5-Amino-2,4-difluorophenyl)-2-chloro-5-((1R,3R)-2,2-dichloro-3-(3,4,5-trichlorophenyl)cyclopropane-1-carboxamido)-3-methylbenzamide]	50 to 100%	50 to 100%
Cc1cc(NC(=O)[C@H]2[C@H](c3ccc(F)c(C(F)(F)F)c3)C2(Cl)Cl)cc(C(=O)Nc2cc(N)c(F)cc2F)c1Cl [F1478, N-(5-Amino-2,4-difluorophenyl)-2-chloro-5-((1R,3R)-2,2-dichloro-3-(4-fluoro-3-(trifluoromethyl)phenyl)cyclopropane-1-carboxamido)-3-methylbenzamide]	50 to 100%	50 to 100%
Cc1cc(NC(=O)[C@H]2[C@H](c3ccc(Cl)c(Cl)c3)C2(Cl)Cl)cc(C(=O)Nc2ccc(F)c(NC(=O)C(F)F)c2F)c1Cl [F1484, 2-Chloro-5-((1R,3R)-2,2-dichloro-3-(3,4-dichlorophenyl)cyclopropane-1-carboxamido)-N-(3-(2,2-difluoroacetamido)-2,4-difluorophenyl)-3-methylbenzamide]	50 to 100%	50 to 100%
Cc1cc(NC(=O)[C@H]2[C@H](c3ccc(Cl)c(Cl)c3)C2(Cl)Cl)cc(C(=O)Nc2ccc(F)c(NC(=O)C(F)(F)F)c2F)c1Cl [F1485, 2-Chloro-5-((1R,3R)-2,2-dichloro-3-(3,4-dichlorophenyl)cyclopropane-1-carboxamido)-N-(2,4-difluoro-3-(2,2,2-trifluoroacetamido)phenyl)-3-methylbenzamide]	50 to 100%	50 to 100%
Cc1cc(NC(=O)[C@H]2[C@H](c3cc(Cl)c(Cl)c(Cl)c3)C2(Cl)Cl)cc(C(=O)Nc2ccc(F)c(NC(=O)C(F)F)c2F)c1Cl [F1486, 2-Chloro-5-((1R,3R)-2,2-dichloro-3-(3,4,5-trichlorophenyl)cyclopropane-1-carboxamido)-N-(3-(2,2-difluoroacetamido)-2,4-difluorophenyl)-3-methylbenzamide]	50 to 100%	50 to 100%
Cc1cc(NC(=O)[C@H]2[C@H](c3cc(Cl)c(Cl)c(Cl)c3)C2(Cl)Cl)cc(C(=O)Nc2ccc(F)c(NC(=O)C(F)(F)F)c2F)c1Cl [F1487, 2-Chloro-5-((1R,3R)-2,2-dichloro-3-(3,4,5-trichlorophenyl)cyclopropane-1-carboxamido)-N-(2,4-difluoro-3-(2,2,2-trifluoroacetamido)phenyl)-3-methylbenzamide]	50 to 100%	50 to 100%
Nc1cc(NC(=O)c2cc(NC(=O)[C@H]3[C@H](c4ccc(Cl)c(Cl)c4)C3(Cl)Cl)ccc2F)c(F)cc1F [F1490, N-(5-Amino-2,4-difluorophenyl)-5-((1R,3R)-2,2-dichloro-3-(3,4-dichlorophenyl)cyclopropane-1-carboxamido)-2-fluorobenzamide]	50 to 100%	50 to 100%
O=C(Nc1ccc(F)c(NC(=O)C(F)F)c1F)c1cc(NC(=O)[C@H]2[C@H](c3ccc(Cl)c(Cl)c3)C2(Cl)Cl)ccc1F [F1491, 5-((1R,3R)-2,2-Dichloro-3-(3,4-dichlorophenyl)cyclopropane-1-carboxamido)-N-(3-(2,2-difluoroacetamido)-2,4-difluorophenyl)-2-fluorobenzamide]	50 to 100%	50 to 100%
CC(=O)Nc1c(F)ccc(NC(=O)c2cc(NC(=O)[C@H]3[C@H](c4ccc(Cl)c(Cl)c4)C3(Cl)Cl)ccc2F)c1F [F1493, N-(3-Acetamido-2,4-difluorophenyl)-5-((1R,3R)-2,2-dichloro-3-(3,4-dichlorophenyl)cyclopropane-1-carboxamido)-2-fluorobenzamide]	50 to 100%	50 to 100%
